Measured values taken from patent US12247011B2, “Selective inhibitors of NLRP3 inflammasome” (NodThera Limited, priority 2017, dated 2025).

tested on: IL-1β release upon NLRP3 activation in peripheral blood mononuclear cells (PBMC); experiment: PBMC IC50 Determination Assay; type: cell-based; settings: Homo sapiens; LPS-primed PBMC, 30 min compound, stimulated with ATP (5 mM) or nigericin (10 μM) for 1 h; IL-1β ELISA; read-out: PBMC IC50
Procedure: PBMC IC50 Determination Assay
The compounds of the present disclosure were tested for their inhibitory activity against IL-1β release upon NLRP3 activation in peripheral blood mononuclear cells (PBMC).
Isolated cells were seeded into the wells of a 96-well plate and incubated for 3 h with lipopolysaccharide (LPS). Following medium exchange, the compounds of the present disclosure were added (a single compound per well) and the cells were incubated for 30 min. Next, the cells were stimulated either with ATP (5 mM) or nigericin (10 μM) for 1 h and the cell culture media from the wells were collected for further analysis.
The release of IL-1β into the media was determined by a quantitative detection of IL-1β in the media using an IL-1β enzyme-linked immunosorbent assay (ELISA) Ready-SET-Go!, eBioscience cat. […] Subsequently, plates were blocked with blocking buffer for 1 h at room temperature (rt) and after washing with a buffer (PBS with 0.05% Tween-20) incubated with protein standard and culture media. […] Plates were washed and incubated with HRP-streptavidin for 30 min at rt and washed again. The signal was developed after addition of 3,3,5,5-tetramethylbenzidine-peroxidase (TMB) until colour appeared and the reaction was stopped by 2 M H2SO4. A microplate spectrophotometer (BioTek) was used to detect signals with 450 nm. The detection range of IL-1β ELISA was 2-150 ng/ml.

Question: Which IC50 does the source give for CCOC(=O)C(Cn1cccn1)OC(=O)Nc1c(C)cccc1F (centres unmarked) [Compound 49, Ethyl 2-{[(2-fluoro-6-methylphenyl)carbamoyl]oxy}-3-(1H-pyrazol-1-yl)propanoate] here?
Answer: 100 to 1000 nM

Question: How did the IC50 turn out when CCOC(=O)C(Cn1cccn1)OC(=O)Nc1c(F)cccc1Cl (centres unmarked) [Compound 50, Ethyl 2-{[(2-chloro-6-fluorophenyl)carbamoyl]oxy}-3-(1H-pyrazol-1-yl)propanoate] was run?
Answer: 100 to 1000 nM

Question: Which IC50 does the source give for CCOC(=O)C(Cn1cccn1)OC(=O)Nc1c(C)cccc1Cl (centres unmarked) [Compound 51, Ethyl 2-{[(2-chloro-6-methylphenyl)carbamoyl]oxy}-3-(1H-pyrazol-1-yl)propanoate] here?
Answer: 1000 to 10000 nM

Question: CCOC(=O)C(Cn1cccn1)OC(=O)Nc1c(Cl)cccc1Cl (centres unmarked) [Compound 52, Ethyl 2-{[(2,6-dichlorophenyl)carbamoyl]oxy}-3-(1H-pyrazol-1-yl)propanoate] was tested. Which IC50 did it give?
Answer: 1000 to 10000 nM

Question: For CCOC(=O)C(Cn1cccn1)OC(=O)NC1CCCCC1 (centres unmarked) [Compound 53, ethyl 2-[(cyclohexylcarbamoyl)oxy]-3-(1H-pyrazol-1-yl)-propanoate], which IC50 is on record?
Answer: 1000 to 10000 nM

Question: Which IC50 does the source give for CCOC(=O)C(Cn1cccn1)OC(=O)NC1CCCC1 (centres unmarked) [Compound 54, Ethyl 2-[(cyclopentylcarbamoyl)oxy]-3-(1H-pyrazol-1-yl)propanoate] here?
Answer: 1000 to 10000 nM

Question: With CCOC(=O)C(Cn1cccn1)OC(=O)NC1CCCCCC1 (centres unmarked) [Compound 56, Ethyl 2-[(cycloheptylcarbamoyl)oxy]-3-(1H-pyrazol-1-yl)propanoate] as the molecule, how does the IC50 read?
Answer: > 10000 nM

Question: Which IC50 does the source give for CCOC(=O)C(Cn1cccn1)OC(=O)Nc1c(C)cccc1C#N (centres unmarked) [Compound 57, Ethyl 2-{[(2-cyano-6-methylphenyl)carbamoyl]oxy}-3-(1H-pyrazol-1-yl)propanoate] here?
Answer: > 10000 nM

Question: With CCOC(=O)C(Cn1cccn1)OC(=O)Nc1c(C#N)cccc1CC (centres unmarked) [Compound 58, Ethyl 2-{[(2-cyano-6-ethylphenyl)carbamoyl]oxy}-3-(1H-pyrazol-1-yl)propanoate] as the molecule, how does the IC50 read?
Answer: 1000 to 10000 nM

Question: With CCOC(=O)C(Cn1cccn1)OC(=O)Nc1c(Cl)cccc1C#N (centres unmarked) [Compound 59, Ethyl 2-{[(2-chloro-6-cyanophenyl)carbamoyl]oxy}-3-(1H-pyrazol-1-yl)propanoate] as the molecule, how does the IC50 read?
Answer: > 10000 nM

Question: How did the IC50 turn out when O=C(Nc1c2c(cc3c1CCC3)CCC2)O[C@H](Cn1cccn1)C(=O)O [Compound 61, (2R)-2-{[(1,2,3,5,6,7-hexahydro-s-indacen-4-yl)carbamoyl]oxy}-3-(1H-pyrazol-1-yl)propanoic acid] was run?
Answer: 100 to 1000 nM

Question: For CCOC(=O)C(Cc1cccnn1)OC(=O)Nc1c2c(cc3c1CCC3)CCC2 (centres unmarked) [Compound 62, Ethyl 2-{[(1,2,3,5,6,7-hexahydro-s-indacen-4-yl)carbamoyl]oxy}-3-(pyridazin-3-yl)propanoate], which IC50 is on record?
Answer: 100 to 1000 nM

Question: For CCOC(=O)C(Cn1cccn1)OC(=O)Nc1c(F)ccc(F)c1F (centres unmarked) [Compound 63, Ethyl 3-(1H-pyrazol-1-yl)-2-{[(2,3,6-trifluorophenyl)carbamoyl]oxy}propanoate], which IC50 is on record?
Answer: 100 to 1000 nM

Question: How did the IC50 turn out when O=C(Nc1c2c(cc3c1CCC3)CCC2)O[C@H](Cn1cccn1)C(=O)OCc1ccccc1 [Compound 64, Benzyl (2R)-2-{[(1,2,3,5,6,7-hexahydro-s-indacen-4-yl)carbamoyl]oxy}-3-(1H-pyrazol-1-yl)propanoate] was run?
Answer: 100 to 1000 nM

Question: For CCOC(=O)C(Cn1cccn1)OC(=O)Nc1c(F)cccc1CC (centres unmarked) [Compound 66, Ethyl 2-{[(2-ethyl-6-fluorophenyl)carbamoyl]oxy}-3-(1H-pyrazol-1-yl)propanoate], which IC50 is on record?
Answer: 100 to 1000 nM

Question: Which IC50 does the source give for CCOC(=O)[C@@H](Cn1ccnc1)OC(=O)Nc1c2c(cc3c1CCC3)CCC2 [Compound 67, Ethyl (2R)-2-{[(1,2,3,5,6,7-hexahydro-s-indacen-4-yl)carbamoyl]oxy}-3-(1H-imidazol-1-yl)propanoate] here?
Answer: 100 to 1000 nM

Question: For CCOC(=O)[C@@H](COC)OC(=O)Nc1c2c(cc3c1CCC3)CCC2 [Compound 68, Ethyl (2R)-2-{[(1,2,3,5,6,7-hexahydro-indacen-4-yl)carbamoyl]oxy}-3-methoxypropanoate], which IC50 is on record?
Answer: 1000 to 10000 nM
